This test deals with T1, Q46 protein aggregates (Homo sapiens, UniProt P42858, INS38QQQQQQQQQQQQQQQQQQQQQQQQQ).
T1 construct: 33 μM GST-Q46 was incubated with 150 μg/mL thrombin in assay buffer (150 mM NaCl, 50 mM Tris pH 8.0) and 2 mM CaCl2 for 16 hr at 37° C; fused on or other part: GST at the N-terminus
Kind of test: Q46 Radioligand Binding Assay (RBA). The conditions noted are these: displacement of 10 nM [3H3]MK-3328 from 5 μM Q46 protein aggregates, 60 min at 37° C. As to the method: Q46 Radioligand Binding Assay
For radioligand binding assays (RBA) GST-Q46 protein was generated based on a previous publication (Scherzinger et al. Cell, Vol. 90, 549-558, Aug. 8, 1997). For experiments 33 μM GST-Q46 was incubated with 150 μg/mL thrombin in assay buffer (150 mM NaCl, 50 mM Tris pH 8.0) and 2 mM CaCl2 for 16 hr at 37° C. Aggregated Q46 was pelleted by centrifugation for 5 min at 13,000 rpm in a bench top centrifuge and re-dissolved in the same volume of assay buffer. Test compounds were prepared by titration in DMSO at 11 concentrations from 33 μM to 1 nM. For the RBA, Q46 protein aggregates and test compounds were pre-incubated in assay buffer for 20 min at room temperature, in 140 μL/well in a 96-well plate (pp, round bottom). Then, ligand was added in 10 μL/well and incubated for 60 min at 37° C. Final assay concentrations were 1 μM to 30 pM test compound, 5 μM Q46 protein (equivalent monomer concentration) and 10 nM ligand [^3H3]MK-3328 (Harrision et al., ACS Med. Chem. Lett., 2 (2011), pp 498-502). Samples were transferred onto GF/B filter plates and washed 2× with 200 μL PBS using a Filtermate Harvester. After drying filter plates for 1 hr at 37° C., the back of the plates was sealed with foil and 30 μL/well scintillation fluid (Packard MicroScint 40) was added, incubated for incubated for 15 min in the dark and counted in a TopCount reader. […] IC50 values were determined with a sigmoidal inhibition model with four variables (top, bottom, slope, IC50) in a global fit using the normalized replicate data.

T1 sequence (P42858 with tags, fused parts or gaps with the stated changes): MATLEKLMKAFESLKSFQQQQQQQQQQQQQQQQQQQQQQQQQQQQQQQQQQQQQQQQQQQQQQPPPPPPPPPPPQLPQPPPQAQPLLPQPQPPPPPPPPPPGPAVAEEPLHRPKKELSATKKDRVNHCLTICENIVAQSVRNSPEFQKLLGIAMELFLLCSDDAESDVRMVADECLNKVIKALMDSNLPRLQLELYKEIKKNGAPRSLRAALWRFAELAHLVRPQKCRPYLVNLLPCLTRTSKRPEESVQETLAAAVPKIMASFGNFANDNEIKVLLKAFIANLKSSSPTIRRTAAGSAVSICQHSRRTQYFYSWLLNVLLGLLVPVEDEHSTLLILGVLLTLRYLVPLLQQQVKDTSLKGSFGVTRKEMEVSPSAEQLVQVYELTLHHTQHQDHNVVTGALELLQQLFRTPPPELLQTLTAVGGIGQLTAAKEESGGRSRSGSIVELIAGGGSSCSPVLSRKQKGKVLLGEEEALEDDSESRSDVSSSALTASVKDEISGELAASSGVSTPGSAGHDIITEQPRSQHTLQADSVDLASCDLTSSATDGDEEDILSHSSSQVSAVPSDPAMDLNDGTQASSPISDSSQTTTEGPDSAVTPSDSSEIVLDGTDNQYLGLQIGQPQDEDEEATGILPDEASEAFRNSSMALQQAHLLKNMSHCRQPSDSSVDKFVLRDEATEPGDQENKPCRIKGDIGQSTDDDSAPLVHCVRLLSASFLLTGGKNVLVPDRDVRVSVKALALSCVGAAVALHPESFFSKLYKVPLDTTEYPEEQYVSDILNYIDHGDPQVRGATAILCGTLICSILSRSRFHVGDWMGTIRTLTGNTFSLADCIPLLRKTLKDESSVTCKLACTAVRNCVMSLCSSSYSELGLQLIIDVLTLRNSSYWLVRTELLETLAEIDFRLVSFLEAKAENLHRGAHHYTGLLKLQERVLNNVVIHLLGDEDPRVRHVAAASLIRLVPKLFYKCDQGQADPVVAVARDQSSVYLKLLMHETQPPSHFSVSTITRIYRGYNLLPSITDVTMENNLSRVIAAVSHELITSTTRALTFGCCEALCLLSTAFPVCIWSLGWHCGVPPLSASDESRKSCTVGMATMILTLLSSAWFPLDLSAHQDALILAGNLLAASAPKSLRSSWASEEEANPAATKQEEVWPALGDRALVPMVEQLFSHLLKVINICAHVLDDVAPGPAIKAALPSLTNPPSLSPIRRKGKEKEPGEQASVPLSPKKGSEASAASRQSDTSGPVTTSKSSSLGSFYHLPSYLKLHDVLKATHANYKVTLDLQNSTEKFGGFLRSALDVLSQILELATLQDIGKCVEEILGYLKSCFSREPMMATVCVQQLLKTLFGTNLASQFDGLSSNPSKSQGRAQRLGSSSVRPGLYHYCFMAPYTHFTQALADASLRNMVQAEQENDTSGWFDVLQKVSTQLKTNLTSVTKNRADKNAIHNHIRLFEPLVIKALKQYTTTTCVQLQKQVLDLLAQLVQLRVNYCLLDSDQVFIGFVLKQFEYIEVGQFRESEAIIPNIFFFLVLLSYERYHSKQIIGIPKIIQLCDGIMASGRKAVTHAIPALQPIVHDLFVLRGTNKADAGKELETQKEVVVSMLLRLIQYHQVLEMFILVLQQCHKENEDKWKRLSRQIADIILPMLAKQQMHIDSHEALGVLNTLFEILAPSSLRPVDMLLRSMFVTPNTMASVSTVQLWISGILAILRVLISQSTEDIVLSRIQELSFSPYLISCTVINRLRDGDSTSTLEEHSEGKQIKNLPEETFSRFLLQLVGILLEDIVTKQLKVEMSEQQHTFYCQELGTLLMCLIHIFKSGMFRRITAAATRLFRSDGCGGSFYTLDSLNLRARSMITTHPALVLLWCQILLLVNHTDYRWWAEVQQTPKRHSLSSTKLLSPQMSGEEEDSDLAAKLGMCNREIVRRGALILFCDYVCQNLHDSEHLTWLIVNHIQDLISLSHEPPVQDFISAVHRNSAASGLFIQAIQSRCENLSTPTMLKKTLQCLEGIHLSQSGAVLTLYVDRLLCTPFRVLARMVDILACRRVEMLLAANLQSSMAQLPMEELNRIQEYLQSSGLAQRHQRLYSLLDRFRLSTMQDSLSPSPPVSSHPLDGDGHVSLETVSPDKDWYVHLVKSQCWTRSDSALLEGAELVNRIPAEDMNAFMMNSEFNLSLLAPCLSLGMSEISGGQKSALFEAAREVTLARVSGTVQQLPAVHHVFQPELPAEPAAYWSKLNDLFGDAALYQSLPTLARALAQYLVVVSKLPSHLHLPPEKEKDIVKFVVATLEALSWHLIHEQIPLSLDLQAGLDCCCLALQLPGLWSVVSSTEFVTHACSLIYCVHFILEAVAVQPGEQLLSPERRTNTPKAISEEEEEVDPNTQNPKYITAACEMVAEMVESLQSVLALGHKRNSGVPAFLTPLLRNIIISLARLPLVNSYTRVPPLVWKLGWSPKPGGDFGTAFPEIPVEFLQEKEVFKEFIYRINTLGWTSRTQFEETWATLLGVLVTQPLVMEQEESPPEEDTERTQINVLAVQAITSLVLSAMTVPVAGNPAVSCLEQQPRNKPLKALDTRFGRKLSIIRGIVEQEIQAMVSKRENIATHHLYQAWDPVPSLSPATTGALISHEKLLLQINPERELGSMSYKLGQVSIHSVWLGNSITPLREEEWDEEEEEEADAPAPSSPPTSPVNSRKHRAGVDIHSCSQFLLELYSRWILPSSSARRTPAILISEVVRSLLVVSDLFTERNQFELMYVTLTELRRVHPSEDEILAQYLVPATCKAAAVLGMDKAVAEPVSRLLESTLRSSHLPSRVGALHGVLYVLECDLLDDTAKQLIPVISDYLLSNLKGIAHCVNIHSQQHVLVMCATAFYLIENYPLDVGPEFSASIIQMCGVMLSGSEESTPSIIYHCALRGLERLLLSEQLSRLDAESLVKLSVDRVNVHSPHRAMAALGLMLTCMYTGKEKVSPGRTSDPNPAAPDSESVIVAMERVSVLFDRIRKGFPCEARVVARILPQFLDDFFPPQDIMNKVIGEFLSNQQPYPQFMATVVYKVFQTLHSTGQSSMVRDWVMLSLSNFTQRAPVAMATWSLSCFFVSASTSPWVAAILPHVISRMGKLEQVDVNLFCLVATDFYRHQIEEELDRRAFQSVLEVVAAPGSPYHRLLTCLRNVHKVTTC

The molecule `COCCOc1ccc2oc(-c3ccncc3C#N)cc2c1` [4-[5-(2-methoxyethoxy)-1-benzofuran-2-yl]pyridine-3-carbonitrile] had an IC50 of less than 100 nM. `COc1ccc2nc(-c3ccnc(C#N)c3)sc2c1` [4-(6-methoxy-1,3-benzothiazol-2-yl)pyridine-2-carbonitrile] yielded an IC50 of less than 100 nM. In turn, `COc1ccc2oc(-c3ccncc3)c(C#N)c2c1` [5-methoxy-2-(pyridin-4-yl)-1-benzofuran-3-carbonitrile] came in with an IC50 of less than 100 nM.

The molecule `COc1ccc2nc(-c3ccc(C#N)cc3)sc2c1` [4-(6-methoxy-1,3-benzothiazol-2-yl)benzonitrile] registered a concentration for half-maximal inhibition (IC50) of less than 100 nM.

Turning to `Oc1ccc2nc(-c3ccncc3Br)sc2c1` [2-(3-bromopyridin-4-yl)-1,3-benzothiazol-6-ol], the IC50 lay in the range of 100 to 500 nM. In turn, `OCc1ccc2oc(-c3cccnc3)nc2c1` [[2-(pyridin-3-yl)-1,3-benzoxazol-5-yl]methanol] yielded an IC50 of more than 500 nM. Take `COc1ncc2cc(-c3ccccc3C#N)oc2n1` [2-{2-methoxyfuro[2,3-d]pyrimidin-6-yl}benzonitrile]: the IC50 is less than 100 nM. On to `COc1ccc2nc(-c3cnccc3C#N)sc2c1` [3-(6-methoxy-1,3-benzothiazol-2-yl)pyridine-4-carbonitrile], for which the concentration for half-maximal inhibition (IC50) was less than 100 nM. In turn, `COc1ccc2nc(-c3ccncc3F)sc2c1` [2-(3-fluoropyridin-4-yl)-6-methoxy-1,3-benzothiazole] had an IC50 of less than 100 nM.

On to `Cc1cccc(-c2nc3cc(N)cnc3o2)c1` [2-(3-methylphenyl)-[1,3]oxazolo[5,4-b]pyridin-6-amine], for which the IC50 was more than 500 nM.

Molecule `COc1ccc2oc(-c3ccncc3C#N)cc2c1` [4-(5-methoxy-1-benzofuran-2-yl)pyridine-3-carbonitrile] returned a 50% inhibitory concentration (IC50) of less than 100 nM. `COc1ccc2nc(-c3ccncc3C#N)sc2c1` [4-(6-methoxy-1,3-benzothiazol-2-yl)pyridine-3-carbonitrile] came in with an IC50 of 100 to 500 nM. For `COCOc1ccc2oc(-c3ccncc3C#N)cc2c1` [4-[5-(methoxymethoxy)-1-benzofuran-2-yl]pyridine-3-carbonitrile], the IC50 is less than 100 nM. In turn, `COc1ccc2nc(-c3ccncc3Br)sc2c1` [2-(3-bromopyridin-4-yl)-6-methoxy-1,3-benzothiazole] returned an IC50 of less than 100 nM.

In the case of `COc1ccc2nc(-c3ccncc3C#N)[nH]c2c1` [4-(6-methoxy-1H-1,3-benzodiazol-2-yl)pyridine-3-carbonitrile], the IC50 was more than 500 nM. `COc1ccc2nc(-c3ccccc3C#N)sc2c1` [2-(6-methoxy-1,3-benzothiazol-2-yl)benzonitrile] showed a half-inhibitory concentration (IC50) of less than 100 nM.

For the molecule `CN(CCO)c1ccc2oc(-c3ccncc3C#N)cc2c1` [4-{5-[(2-hydroxyethyl)(methyl)amino]-1-benzofuran-2-yl}pyridine-3-carbonitrile], the 50% inhibitory concentration (IC50) was less than 100 nM. `COc1ccc2oc(-c3ncccc3C#N)cc2c1` [2-(5-methoxy-1-benzofuran-2-yl)pyridine-3-carbonitrile] yielded a 50% inhibitory concentration (IC50) of less than 100 nM. With `COc1ccc2oc(-c3cccc(NC(C)=O)n3)cc2c1` [N-[6-(5-methoxy-1-benzofuran-2-yl)pyridin-2-yl]acetamide], the concentration for half-maximal inhibition (IC50) is less than 100 nM. For `COc1ccc2nc(-c3ccncc3C#N)oc2c1` [4-(6-methoxy-1,3-benzoxazol-2-yl)pyridine-3-carbonitrile] the value was less than 100 nM; for `COCOc1ccc2oc(-c3cn(C)nc3C#N)cc2c1` [4-[5-(methoxymethoxy)-1-benzofuran-2-yl]-1-methyl-1H-pyrazole-3-carbonitrile], less than 100 nM; for `CNc1cnccc1-c1nc2ccc(OC)cc2s1` [4-(6-methoxy-1,3-benzothiazol-2-yl)-N-methylpyridin-3-amine], 100 to 500 nM. `COc1ccc2oc(-c3ccncc3C)cc2c1` [4-(5-methoxy-1-benzofuran-2-yl)-3-methylpyridine]: the 50% inhibitory concentration (IC50) is 100 to 500 nM. The molecule `COc1cc2cc(-c3ccncc3C#N)oc2cn1` [4-{5-methoxyfuro[2,3-c]pyridin-2-yl}pyridine-3-carbonitrile] came in with a half-maximal inhibitory concentration (IC50) of less than 100 nM.

Usually IC50 stands for the concentration needed to halve the response being measured. A low value points to greater potency in that assay.
